Experimental data: PubChem BioAssay (NCI)
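Five compound concentrations were applied to cells in 96-well plates for 48 hours; endpoints were derived by simple linear interpolation of the resulting dose-response curve. Here, GI50 denotes the concentration required for 50% inhibition of growth. Definition used: TGI = concentration required for complete inhibition of growth.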

Key:
Test in all cases: DTP human tumour cell line panel, 48 h
786-0 renal = system: 786-0 renal
A498 renal = system: A498 renal
A549 NSCLC = system: A549 NSCLC
ACHN renal = system: ACHN renal
BT-549 breast = system: BT-549 breast
CAKI-1 renal = system: CAKI-1 renal
CCRF-CEM leukemia = system: CCRF-CEM leukemia
COLO 205 colon = system: COLO 205 colon
DU-145 prostate = system: DU-145 prostate
EKVX NSCLC = system: EKVX NSCLC
HCC-2998 colon = system: HCC-2998 colon
HCT-116 colon = system: HCT-116 colon
HCT-15 colon = system: HCT-15 colon
HL-60(TB) leukemia = system: HL-60(TB) leukemia
HOP-62 NSCLC = system: HOP-62 NSCLC
HOP-92 NSCLC = system: HOP-92 NSCLC
HS 578T breast = system: HS 578T breast
HT29 colon = system: HT29 colon
IGROV1 ovarian = system: IGROV1 ovarian
K-562 leukemia = system: K-562 leukemia
KM12 colon = system: KM12 colon
LOX IMVI melanoma = system: LOX IMVI melanoma
M14 melanoma = system: M14 melanoma
MALME-3M melanoma = system: MALME-3M melanoma
MCF7 breast = system: MCF7 breast
MDA-MB-231 breast = system: MDA-MB-231 breast
MDA-MB-435 = system: MDA-MB-435
MOLT-4 leukemia = system: MOLT-4 leukemia
NCI-H226 lung = system: NCI-H226 lung
NCI-H23 lung = system: NCI-H23 lung
NCI-H460 lung = system: NCI-H460 lung
NCI-H522 lung = system: NCI-H522 lung
NCI/ADR-RES ovarian = system: NCI/ADR-RES ovarian
OVCAR-3 ovarian = system: OVCAR-3 ovarian
OVCAR-4 ovarian = system: OVCAR-4 ovarian
OVCAR-5 ovarian = system: OVCAR-5 ovarian
OVCAR-8 ovarian = system: OVCAR-8 ovarian
PC-3 prostate = system: PC-3 prostate
RPMI-8226 leukemia = system: RPMI-8226 leukemia
SF-268 CNS = system: SF-268 CNS
SF-295 CNS = system: SF-295 CNS
SF-539 CNS = system: SF-539 CNS
SK-MEL-2 melanoma = system: SK-MEL-2 melanoma
SK-MEL-28 melanoma = system: SK-MEL-28 melanoma
SK-MEL-5 melanoma = system: SK-MEL-5 melanoma
SK-OV-3 ovarian = system: SK-OV-3 ovarian
SN12C renal = system: SN12C renal
SNB-19 CNS = system: SNB-19 CNS
SNB-75 CNS = system: SNB-75 CNS
SR leukemia = system: SR leukemia
SW-620 colon = system: SW-620 colon
T-47D breast = system: T-47D breast
TK-10 renal = system: TK-10 renal
U251 CNS = system: U251 CNS
UACC-257 melanoma = system: UACC-257 melanoma
UACC-62 melanoma = system: UACC-62 melanoma
UO-31 renal = system: UO-31 renal

## O=C(/C=C/c1cccc(B(O)O)c1)c1cccc(B(O)O)c1
786-0 renal
  GI50: 1750 nM
  TGI: 3710 nM
A498 renal
  GI50: 1520 nM
  TGI: 3500 nM
A549 NSCLC
  GI50: 2120 nM
  TGI: 5810 nM
ACHN renal
  GI50: 2140 nM
  TGI: 4330 nM
BT-549 breast
  GI50: 1060 nM
  TGI: 2370 nM
CAKI-1 renal
  GI50: 2850 nM
  TGI: 12600 nM
CCRF-CEM leukemia
  GI50: 445 nM
  TGI: 2670 nM
COLO 205 colon
  GI50: 1760 nM
  TGI: 3450 nM
DU-145 prostate
  GI50: 1830 nM
  TGI: 3790 nM
EKVX NSCLC
  GI50: 6380 nM
  TGI: 23100 nM
HCC-2998 colon
  GI50: 1800 nM
  TGI: 3200 nM
HCT-116 colon
  GI50: 376 nM
  TGI: 1570 nM
HCT-15 colon
  GI50: 1550 nM
  TGI: 4300 nM
HL-60(TB) leukemia
  GI50: 2170 nM
  TGI: 6330 nM
HOP-62 NSCLC
  GI50: 1590 nM
  TGI: 3260 nM
HOP-92 NSCLC
  GI50: 1530 nM
  TGI: 3590 nM
HS 578T breast
  GI50: 3890 nM
  TGI: 54800 nM
HT29 colon
  GI50: 1680 nM
  TGI: 3170 nM
IGROV1 ovarian
  GI50: 2520 nM
  TGI: 6650 nM
K-562 leukemia
  GI50: 2130 nM
  TGI: 9000 nM
KM12 colon
  GI50: 1370 nM
  TGI: 2790 nM
LOX IMVI melanoma
  GI50: 760 nM
  TGI: 2030 nM
M14 melanoma
  GI50: 1510 nM
  TGI: 3330 nM
MALME-3M melanoma
  GI50: 2260 nM
  TGI: 6010 nM
MCF7 breast
  GI50: 742 nM
  TGI: 7580 nM
MDA-MB-231 breast
  GI50: 1580 nM
  TGI: 3170 nM
MDA-MB-435
  GI50: 1900 nM
  TGI: 4880 nM
MOLT-4 leukemia
  GI50: 2100 nM
  TGI: 5960 nM
NCI-H226 lung
  GI50: 1910 nM
  TGI: 4140 nM
NCI-H23 lung
  GI50: 1810 nM
  TGI: 4440 nM
NCI-H460 lung
  GI50: 1990 nM
  TGI: 4530 nM
NCI-H522 lung
  GI50: 1510 nM
  TGI: 3020 nM
NCI/ADR-RES ovarian
  GI50: 1990 nM
  TGI: 5470 nM
OVCAR-3 ovarian
  GI50: 828 nM
  TGI: 2380 nM
OVCAR-4 ovarian
  GI50: 3270 nM
  TGI: 22200 nM
OVCAR-5 ovarian
  GI50: 2170 nM
  TGI: 4870 nM
OVCAR-8 ovarian
  GI50: 2190 nM
  TGI: 7230 nM
PC-3 prostate
  GI50: 2530 nM
  TGI: 11200 nM
RPMI-8226 leukemia
  GI50: 2250 nM
  TGI: 5680 nM
SF-268 CNS
  GI50: 1800 nM
  TGI: 5560 nM
SF-295 CNS
  GI50: 3900 nM
  TGI: 15600 nM
SF-539 CNS
  GI50: 1840 nM
  TGI: 3730 nM
SK-MEL-2 melanoma
  GI50: 2260 nM
  TGI: 5200 nM
SK-MEL-28 melanoma
  GI50: 1720 nM
  TGI: 3460 nM
SK-MEL-5 melanoma
  GI50: 1850 nM
  TGI: 3830 nM
SK-OV-3 ovarian
  GI50: 3160 nM
  TGI: 11600 nM
SN12C renal
  GI50: 1700 nM
  TGI: 3610 nM
SNB-19 CNS
  GI50: 2130 nM
  TGI: 10400 nM
SNB-75 CNS
  GI50: 3610 nM
  TGI: 16300 nM
SR leukemia
  GI50: 314 nM
  TGI: 1650 nM
SW-620 colon
  GI50: 765 nM
  TGI: 2310 nM
T-47D breast
  GI50: 2310 nM
  TGI: 9580 nM
TK-10 renal
  GI50: 2570 nM
  TGI: 6470 nM
U251 CNS
  GI50: 406 nM
  TGI: 1520 nM
UACC-257 melanoma
  GI50: 1380 nM
  TGI: 3310 nM
UACC-62 melanoma
  GI50: 1660 nM
  TGI: 4310 nM
UO-31 renal
  GI50: 1710 nM
  TGI: 3360 nM
